Reference: patent US20240308998A1, “PYRROLOPYRIDONE DERIVATIVES USEFUL IN THE TREATMENT OF CANCER” (Tay Therapeutics Limited, priority 2021, published 2024)
pIC50: −log10 of the molar value.

How the values were obtained:
BRD4 BD1 = target: T1, BRD4 BD1 (Homo sapiens, UniProt O60885); experiment: NanoBRET bromodomain assay, BRD4 BD1; assay type: cell-based; settings: HEK293 cells transfected with NanoLuc-BRD4-BD1
T1 construct: HEK293 cells were transfected using NanoLuc-BRD4-BD1 or NanoLuc-BRD4-BD2 fusion vectors; host or cells: HEK293
How it was run: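 Transfected HEK293 cells expressing NanoLuc-BRD4-BD1 were incubated with 1x tracer and serially diluted compound for 2 h at 37 °C, then given Nano-Glo substrate plus extracellular NanoLuc inhibitor. Donor 450 nm and acceptor 610 nm emissions were converted to background-corrected mBU, and IC50 was derived by nonlinear regression.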

BRD4 BD2 = target: T2, BRD4 BD2 (Homo sapiens, UniProt O60885); experiment: NanoBRET bromodomain assay, BRD4 BD2; assay type: cell-based; settings: for Fold selectivity BRD4 BD1/BD2: IC50 BD1/IC50 BD2; for pIC50: NanoBRET, HEK293 cells transfected with NanoLuc-BRD4-BD2
T2 construct: HEK293 cells were transfected using NanoLuc-BRD4-BD1 or NanoLuc-BRD4-BD2 fusion vectors; host or cells: HEK293
How it was run: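 HEK293 cells transfected with NanoLuc-BRD4-BD2 fusion for 20-24 h, then treated with compound plus 1x tracer for 2 h at 37° C. Donor 450 nm / acceptor 610 nm emissions converted to background-corrected mBU; IC50 by nonlinear regression; selectivity as IC50 BD1/IC50 BD2.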

Mouse plasma stability = assay type: in vitro ADME; settings: 10 μM in mouse plasma, 37° C.
Experimental: The stock solution of compound (10 or 50 mM) was prepared in DMSO. From the stock solution, a working solution of compound (500 uM) was prepared in DMSO (100%). To 735 μL of mouse plasma, 15 μL of working solution of compound was added—resulting in a final concentration of 10 μM (2% DMSO) for the compound. The sample was then incubated at 37° C. Aliquot was withdrawn at time-points—0, 15, 30, 60, 90 and 120 mins. The reaction was stopped by using chilled acetonitrile containing internal standard (IS). The samples were centrifuged and the supernatants analyzed using LC-MS/MS. The percent remaining of the compound at each time point was calculated with respect to the control sample (0 min time-point).

[1] = Intrinsic clearance in mouse liver microsomes; assay type: in vitro ADME; settings: 1 uM, NADPH
Experimental: A 50 mM stock solution (in DMSO) was prepared for the compound. From the stock solution, a working solution of 0.5 mM was prepared by diluting the compound in DMSO. This concentration of working solution was prepared considering a final concentration of 1 uM with 0.1% DMSO. The compound (1 uL of working solution) was spiked in PBS with pH 7.4 (22 uL) at a concentration of 1 uM. Subsequently, 110 uL of 10 mM NADPH was added (as a co-factor). The sample was incubated at 37° C. for 15 min. Following this, pre-warmed mouse liver microsomes (27.5 uL; final protein conc. 0.5 mg/mL) were added. The samples were then incubated at 37° C. Aliquots of samples were withdrawn at 0, 5, 15, 30, 45 and 60 min. The reaction was stopped by using chilled acetonitrile containing internal standard. The samples were centrifuged and the supernatants analysed by LC-MS/MS. The percent compound remaining at each time point was calculated with respect to that of the 0 min sample. The data were then analysed to calculate half-life and intrinsic clearance (CLint). Note that control samples were run without NADPH and blank samples were prepared using DMSO without the test compound.

| pIC50 (BRD4 BD1) | Fold selectivity BRD4 BD1/BD2 (BRD4 BD2) | pIC50 (BRD4 BD2) | Mouse Plasma Stability % remaining at 120 minutes (Mouse plasma stability) | Mouse Microsomal Stability (intrinsic clearance) [1] | Compound |
| --- | --- | --- | --- | --- | --- |
| < 6.00 | xxx (Fold >200) | ≥ 7.30 | 77% | 0.5 ml/min/g liver | Cc1cccc(C)c1Oc1cn(C)c(=O)cc1-c1cn(C)c(=O)c2[nH]c(-c3ncc(C(F)(F)F)[nH]3)cc12 [Example 3, 4-(5-(2,6-dimethylphenoxy)-1-methyl-2-oxo-1,2-dihydropyridin-4-yl)-6-methyl-2-(5-(trifluoromethyl)-1H-imidazol-2-yl)-1,6-dihydro-7H-pyrrolo[2,3-c] pyridin-7-one] |
| < 6.00 | xxx (Fold >200) | ≥ 7.30 | 95% | 0.7 ml/min/g liver | Cc1cnc(-c2cc3c(-c4cc(=O)n(C)cc4Oc4c(C)cccc4C)cn(C)c(=O)c3[nH]2)[nH]1 [Example 1, 4-(5-(2,6-dimethylphenoxy)-1-methyl-2-oxo-1,2-dihydropyridin-4-yl)-6-methyl-2-(5-methyl-1H-imidazol-2-yl)-1,6-dihydro-7H-pyrrolo [2,3-c] pyridin-7-one] |
| < 6.00 | xx (Fold >50 and ≤200) | 6.70 to 7.30 | 7% | 0.9 ml/min/g liver | CCNC(=O)c1cc2c(-c3ccn(C)c(=O)c3Oc3c(C)cc(F)cc3C)cn(C)c(=O)c2[nH]1 [Comparative Example A, reference compound] |
| < 6.00 | xx (Fold >50 and ≤200) | ≥ 7.30 | 100% | 0.9 ml/min/g liver | Cc1cccc(C)c1Oc1cn(C)c(=O)cc1-c1cn(C)c(=O)c2[nH]c(-c3ncc[nH]3)cc12 [Example 2, 4-(5-(2,6-dimethylphenoxy)-1-methyl-2-oxo-1,2-dihydropyridin-4-yl)-2-(1H-imidazol-2-yl)-6-methyl-1,6-dihydro-7H-pyrrolo [2,3-c] pyridin-7-one] |
